Data reported in ChEMBL document CHEMBL5390221, “Synthesis and biological activity assay of novel camptothecin-peptidic conjugates based on PEPT1” (Bioorg Med Chem Lett, 2023).

Tested on: not listed separately
Experiment: Cytotoxicity against human MPC2 cells assessed as inhibition of cell growth
Assay type: functional, cell-based

SMILES	IC50
CC[C@@]1(OC(=O)CNC(=O)[C@H](Cc2ccccc2)NC(C)=O)C(=O)OCc2c1cc1n(c2=O)Cc2cc3ccccc3nc2-1	102 nM
CC[C@@]1(OC(=O)CNC(=O)[C@H](CC(N)=O)NC(=O)OC(C)(C)C)C(=O)OCc2c1cc1n(c2=O)Cc2cc3ccccc3nc2-1	260 nM
CC[C@@]1(OC(=O)CNC(=O)[C@H](C)NC(=O)OC(C)(C)C)C(=O)OCc2c1cc1n(c2=O)Cc2cc3ccccc3nc2-1	180 nM
CC[C@H](C)[C@H](NC(C)=O)C(=O)NCC(=O)O[C@]1(CC)C(=O)OCc2c1cc1n(c2=O)Cc2cc3ccccc3nc2-1	197 nM
CC[C@@]1(OC(=O)CNC(=O)[C@H](C)NC(C)=O)C(=O)OCc2c1cc1n(c2=O)Cc2cc3ccccc3nc2-1	91.4 nM
CCC(=O)NCC(=O)O[C@]1(CC)C(=O)OCc2c1cc1n(c2=O)Cc2cc3ccccc3nc2-1	155 nM
CC[C@@]1(OC(=O)CNC(=O)[C@H](CCC(N)=O)NC(=O)OC(C)(C)C)C(=O)OCc2c1cc1n(c2=O)Cc2cc3ccccc3nc2-1	387 nM
CC[C@@]1(OC(=O)CNC(=O)[C@@H](NC(C)=O)C(C)C)C(=O)OCc2c1cc1n(c2=O)Cc2cc3ccccc3nc2-1	209 nM
CCCC(=O)NCC(=O)O[C@]1(CC)C(=O)OCc2c1cc1n(c2=O)Cc2cc3ccccc3nc2-1	106 nM

Tested on: Hep 3B2
Experiment: Cytotoxicity against human Hep3B cells assessed as inhibition of cell growth
Assay type: functional, cell-based

SMILES	IC50
CC[C@@]1(OC(=O)CNC(=O)[C@H](Cc2ccccc2)NC(C)=O)C(=O)OCc2c1cc1n(c2=O)Cc2cc3ccccc3nc2-1	973 nM
CC[C@@]1(OC(=O)CNC(=O)[C@H](CC(N)=O)NC(=O)OC(C)(C)C)C(=O)OCc2c1cc1n(c2=O)Cc2cc3ccccc3nc2-1	784 nM
CC[C@@]1(OC(=O)CNC(=O)[C@H](C)NC(=O)OC(C)(C)C)C(=O)OCc2c1cc1n(c2=O)Cc2cc3ccccc3nc2-1	850 nM
CC[C@H](C)[C@H](NC(C)=O)C(=O)NCC(=O)O[C@]1(CC)C(=O)OCc2c1cc1n(c2=O)Cc2cc3ccccc3nc2-1	847 nM
CC[C@@]1(OC(=O)CNC(=O)[C@H](C)NC(C)=O)C(=O)OCc2c1cc1n(c2=O)Cc2cc3ccccc3nc2-1	1010 nM
CCC(=O)NCC(=O)O[C@]1(CC)C(=O)OCc2c1cc1n(c2=O)Cc2cc3ccccc3nc2-1	1010 nM
CC[C@@]1(OC(=O)CNC(=O)[C@H](CCC(N)=O)NC(=O)OC(C)(C)C)C(=O)OCc2c1cc1n(c2=O)Cc2cc3ccccc3nc2-1	999 nM
CC[C@@]1(OC(=O)CNC(=O)[C@@H](NC(C)=O)C(C)C)C(=O)OCc2c1cc1n(c2=O)Cc2cc3ccccc3nc2-1	914 nM
CCCC(=O)NCC(=O)O[C@]1(CC)C(=O)OCc2c1cc1n(c2=O)Cc2cc3ccccc3nc2-1	1510 nM

Tested on: BXPC-3
Experiment: Cytotoxicity against human BXPC-3 cells assessed as inhibition of cell growth
Assay type: functional, cell-based

SMILES	IC50
CC[C@@]1(OC(=O)CNC(=O)[C@H](Cc2ccccc2)NC(C)=O)C(=O)OCc2c1cc1n(c2=O)Cc2cc3ccccc3nc2-1	89.5 nM
CC[C@@]1(OC(=O)CNC(=O)[C@H](CC(N)=O)NC(=O)OC(C)(C)C)C(=O)OCc2c1cc1n(c2=O)Cc2cc3ccccc3nc2-1	84.2 nM
CC[C@@]1(OC(=O)CNC(=O)[C@H](C)NC(=O)OC(C)(C)C)C(=O)OCc2c1cc1n(c2=O)Cc2cc3ccccc3nc2-1	92.8 nM
CC[C@H](C)[C@H](NC(C)=O)C(=O)NCC(=O)O[C@]1(CC)C(=O)OCc2c1cc1n(c2=O)Cc2cc3ccccc3nc2-1	153 nM
CC[C@@]1(OC(=O)CNC(=O)[C@H](C)NC(C)=O)C(=O)OCc2c1cc1n(c2=O)Cc2cc3ccccc3nc2-1	108 nM
CCC(=O)NCC(=O)O[C@]1(CC)C(=O)OCc2c1cc1n(c2=O)Cc2cc3ccccc3nc2-1	123 nM
CC[C@@]1(OC(=O)CNC(=O)[C@H](CCC(N)=O)NC(=O)OC(C)(C)C)C(=O)OCc2c1cc1n(c2=O)Cc2cc3ccccc3nc2-1	121 nM
CC[C@@]1(OC(=O)CNC(=O)[C@@H](NC(C)=O)C(C)C)C(=O)OCc2c1cc1n(c2=O)Cc2cc3ccccc3nc2-1	54.8 nM
CCCC(=O)NCC(=O)O[C@]1(CC)C(=O)OCc2c1cc1n(c2=O)Cc2cc3ccccc3nc2-1	157 nM

Tested on: HepG2
Experiment: Cytotoxicity against human HepG2 cells assessed as inhibition of cell growth
Assay type: functional, cell-based

SMILES	IC50
CC[C@@]1(OC(=O)CNC(=O)[C@H](Cc2ccccc2)NC(C)=O)C(=O)OCc2c1cc1n(c2=O)Cc2cc3ccccc3nc2-1	60.4 nM
CC[C@@]1(OC(=O)CNC(=O)[C@H](CC(N)=O)NC(=O)OC(C)(C)C)C(=O)OCc2c1cc1n(c2=O)Cc2cc3ccccc3nc2-1	88.6 nM
CC[C@@]1(OC(=O)CNC(=O)[C@H](C)NC(=O)OC(C)(C)C)C(=O)OCc2c1cc1n(c2=O)Cc2cc3ccccc3nc2-1	114 nM
CC[C@H](C)[C@H](NC(C)=O)C(=O)NCC(=O)O[C@]1(CC)C(=O)OCc2c1cc1n(c2=O)Cc2cc3ccccc3nc2-1	70.4 nM
CC[C@@]1(OC(=O)CNC(=O)[C@H](C)NC(C)=O)C(=O)OCc2c1cc1n(c2=O)Cc2cc3ccccc3nc2-1	88.7 nM
CCC(=O)NCC(=O)O[C@]1(CC)C(=O)OCc2c1cc1n(c2=O)Cc2cc3ccccc3nc2-1	109 nM
CC[C@@]1(OC(=O)CNC(=O)[C@H](CCC(N)=O)NC(=O)OC(C)(C)C)C(=O)OCc2c1cc1n(c2=O)Cc2cc3ccccc3nc2-1	144 nM
CC[C@@]1(OC(=O)CNC(=O)[C@@H](NC(C)=O)C(C)C)C(=O)OCc2c1cc1n(c2=O)Cc2cc3ccccc3nc2-1	150 nM
CCCC(=O)NCC(=O)O[C@]1(CC)C(=O)OCc2c1cc1n(c2=O)Cc2cc3ccccc3nc2-1	91.8 nM

Tested on: DU-145
Experiment: Cytotoxicity against human DU-145 cells assessed as inhibition of cell growth
Assay type: functional, cell-based

SMILES	IC50
CC[C@@]1(OC(=O)CNC(=O)[C@H](Cc2ccccc2)NC(C)=O)C(=O)OCc2c1cc1n(c2=O)Cc2cc3ccccc3nc2-1	51.7 nM
CC[C@@]1(OC(=O)CNC(=O)[C@H](CC(N)=O)NC(=O)OC(C)(C)C)C(=O)OCc2c1cc1n(c2=O)Cc2cc3ccccc3nc2-1	89.9 nM
CC[C@@]1(OC(=O)CNC(=O)[C@H](C)NC(=O)OC(C)(C)C)C(=O)OCc2c1cc1n(c2=O)Cc2cc3ccccc3nc2-1	68.1 nM
CC[C@H](C)[C@H](NC(C)=O)C(=O)NCC(=O)O[C@]1(CC)C(=O)OCc2c1cc1n(c2=O)Cc2cc3ccccc3nc2-1	94.4 nM
CC[C@@]1(OC(=O)CNC(=O)[C@H](C)NC(C)=O)C(=O)OCc2c1cc1n(c2=O)Cc2cc3ccccc3nc2-1	67.5 nM
CCC(=O)NCC(=O)O[C@]1(CC)C(=O)OCc2c1cc1n(c2=O)Cc2cc3ccccc3nc2-1	52.8 nM
CC[C@@]1(OC(=O)CNC(=O)[C@H](CCC(N)=O)NC(=O)OC(C)(C)C)C(=O)OCc2c1cc1n(c2=O)Cc2cc3ccccc3nc2-1	144 nM
CC[C@@]1(OC(=O)CNC(=O)[C@@H](NC(C)=O)C(C)C)C(=O)OCc2c1cc1n(c2=O)Cc2cc3ccccc3nc2-1	87 nM
CCCC(=O)NCC(=O)O[C@]1(CC)C(=O)OCc2c1cc1n(c2=O)Cc2cc3ccccc3nc2-1	55 nM

Tested on: NCI-H520
Experiment: Cytotoxicity against human NCI-H520 cells assessed as inhibition of cell growth
Assay type: functional, cell-based

SMILES	IC50
CC[C@@]1(OC(=O)CNC(=O)[C@H](Cc2ccccc2)NC(C)=O)C(=O)OCc2c1cc1n(c2=O)Cc2cc3ccccc3nc2-1	56.9 nM
CC[C@@]1(OC(=O)CNC(=O)[C@H](CC(N)=O)NC(=O)OC(C)(C)C)C(=O)OCc2c1cc1n(c2=O)Cc2cc3ccccc3nc2-1	58 nM
CC[C@@]1(OC(=O)CNC(=O)[C@H](C)NC(=O)OC(C)(C)C)C(=O)OCc2c1cc1n(c2=O)Cc2cc3ccccc3nc2-1	67.9 nM
CC[C@H](C)[C@H](NC(C)=O)C(=O)NCC(=O)O[C@]1(CC)C(=O)OCc2c1cc1n(c2=O)Cc2cc3ccccc3nc2-1	109 nM
CC[C@@]1(OC(=O)CNC(=O)[C@H](C)NC(C)=O)C(=O)OCc2c1cc1n(c2=O)Cc2cc3ccccc3nc2-1	69.3 nM
CCC(=O)NCC(=O)O[C@]1(CC)C(=O)OCc2c1cc1n(c2=O)Cc2cc3ccccc3nc2-1	166 nM
CC[C@@]1(OC(=O)CNC(=O)[C@H](CCC(N)=O)NC(=O)OC(C)(C)C)C(=O)OCc2c1cc1n(c2=O)Cc2cc3ccccc3nc2-1	135 nM
CC[C@@]1(OC(=O)CNC(=O)[C@@H](NC(C)=O)C(C)C)C(=O)OCc2c1cc1n(c2=O)Cc2cc3ccccc3nc2-1	125 nM
CCCC(=O)NCC(=O)O[C@]1(CC)C(=O)OCc2c1cc1n(c2=O)Cc2cc3ccccc3nc2-1	153 nM

Molecular target: T1, Solute carrier family 15 member 1 (Homo sapiens) (UniProt P46059)
T1 sequence (whole entry): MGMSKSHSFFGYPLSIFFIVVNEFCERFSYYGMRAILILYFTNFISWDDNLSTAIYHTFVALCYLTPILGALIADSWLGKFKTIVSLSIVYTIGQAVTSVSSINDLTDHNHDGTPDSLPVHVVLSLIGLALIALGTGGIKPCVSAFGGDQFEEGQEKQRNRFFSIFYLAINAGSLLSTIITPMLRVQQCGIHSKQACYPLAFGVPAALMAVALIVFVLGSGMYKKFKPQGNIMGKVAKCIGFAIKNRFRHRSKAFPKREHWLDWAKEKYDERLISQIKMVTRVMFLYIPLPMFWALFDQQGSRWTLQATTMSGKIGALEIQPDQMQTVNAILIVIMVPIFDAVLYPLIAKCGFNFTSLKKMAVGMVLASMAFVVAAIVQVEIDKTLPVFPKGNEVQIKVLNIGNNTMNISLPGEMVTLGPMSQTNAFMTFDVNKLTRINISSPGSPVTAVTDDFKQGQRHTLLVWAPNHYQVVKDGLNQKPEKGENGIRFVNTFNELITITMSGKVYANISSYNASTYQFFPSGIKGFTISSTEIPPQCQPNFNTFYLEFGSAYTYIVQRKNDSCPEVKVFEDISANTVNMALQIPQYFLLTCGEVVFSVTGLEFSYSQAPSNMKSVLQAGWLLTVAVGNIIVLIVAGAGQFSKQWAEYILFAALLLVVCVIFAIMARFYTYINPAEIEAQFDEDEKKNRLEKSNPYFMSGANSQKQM
Experiment: Inhibition of PEPT1 (unknown origin) expressed in HEK293T cells assessed as inhibition of PEPT1 mediated Gly-Sar uptake using Gly-Sar as substrate at 20 uM relative to control
Assay type: cell-based

SMILES	inhibition
CC[C@@]1(OC(=O)CNC(=O)[C@H](Cc2ccccc2)NC(C)=O)C(=O)OCc2c1cc1n(c2=O)Cc2cc3ccccc3nc2-1	> 50%
CC[C@@]1(OC(=O)CNC(=O)[C@H](CC(N)=O)NC(=O)OC(C)(C)C)C(=O)OCc2c1cc1n(c2=O)Cc2cc3ccccc3nc2-1	> 50%
CCC(=O)NCC(=O)O[C@]1(CC)C(=O)OCc2c1cc1n(c2=O)Cc2cc3ccccc3nc2-1	> 50%
CC[C@@]1(OC(=O)CNC(=O)[C@H](CCC(N)=O)NC(=O)OC(C)(C)C)C(=O)OCc2c1cc1n(c2=O)Cc2cc3ccccc3nc2-1	> 50%
CC[C@@]1(OC(=O)CNC(=O)[C@@H](NC(C)=O)C(C)C)C(=O)OCc2c1cc1n(c2=O)Cc2cc3ccccc3nc2-1	> 50%
CCCC(=O)NCC(=O)O[C@]1(CC)C(=O)OCc2c1cc1n(c2=O)Cc2cc3ccccc3nc2-1	> 50%
